# Data published in patent US8278033B2, “Efficient well being assessment and improved treatment protocol” (priority 2008, dated 2012).
# Where “and” joins values, the source holds several entries; their conditions need not be identical. Identical values can stand only once.
# How the values were obtained:
# endothelial cells [1] = assay: Anti-vascular score (AVS) on Fast Green/H&E slides of tumor cell cultures, averaged over paired comparisons; type: cell-based, human; parameters: key to Anti-Vascular Score (AVS) (Avg): 10x the 0+ to 5+ anti-microvascular score (max 50); key to AVS minus VAVS (Avg): AVS minus vehicle AVS, on 10x the 0+ to 5+ scale; conditions: for Anti-Vascular Score (AVS) (Avg): 10x multiples of the 0+ to 5+ score, average of N paired comparisons, bevacizumab 2.5 mg/ml, DMSO 0.5% + EtOH 0.5%, cisplatin 3.3, sunitinib 8.35, gefitinib 22.35, erlotinib 89.4, sorafenib 12.5, imatinib 12.5 μg/ml; for AVS minus VAVS (Avg): AVS corrected for the effect of vehicle by subtraction; for AVS minus VAVS (Avg) / (AVS − VAVS)/AT Ratio (Avg): concentrations as in Table 1; for (AVS − VAVS)/AT Ratio (Avg): ratio of vehicle-corrected AVS to antitumor score
# Protocol: (§1) Solid tumors are minced to pieces smaller than 1 mm (small enough to be aspirated into a standard disposable 10 ml pipette) with high quality curved surgical scissors. Medium in which said tumors may have been transported is reserved, along with the supernatant from the tissue mince. Scissor-minced tumor pieces are digested with collagenase/DNase in RPMI-1640 containing antibiotics and 10% fetal calf serum. Specimens are digested in 50 ml disposable polypropylene centrifuge tubes, assisted by gentle mixing with plastic-coated, magnetic stirring bars over a stirring plate. Specimens are thusly mixed until complete gross digestion has taken place—typically about 2-3 hours for a 1-3 gram specimen. Cytospin slides are then prepared from all cell fractions (transport medium, supernatant from tissue mince, and enzyme digestate), and stained with fast green-H&E, as described previously (Weisenthal, et al., “A Novel Dye Exclusion Method for Testing in vitro Chemosensitivity of Human Tumors,” Cancer Res. (1983) 43:749-757).
# Final volume of cell suspension/drug solution (or vehicle) plated for culture can be 0.12 ml. Culturing is in polypropylene round bottom, 96-well culture dishes in a humidified 37° C. incubator for a standardized duration of time.
# Cells are cultured with the index concentration of each drug and, if desired, with dilutions of the index concentration, where the index concentration is determined from training set assays or from the literature. […] Replicate 96-well plates are tested.
# The various drugs were rated by scoring on a 0+ to 5+ scale for the anti-microvascular effects, with 5+ being the highest possible score. […] The “nib” drugs are kinase inhibiting drugs.
# (§2) For this determination, the results provided in Table 1 are 10× multiples of the scoring system of the previous paragraph.
# (§3) The scores provided in FIG. 2 were multiplied by 10 and averaged to give an anti-vascular score (AVS) shown in column 2; the average AVS for the vehicle alone (VAVS) is shown in column 3 and the level of the statistical significance of their difference is shown in column 4. The AVS score was corrected for the effect of vehicle by subtraction as shown in column 5. The antitumor score (AT) is shown in column 6.
# Finally, the ratio of AVS (corrected for the effect of vehicle) to the antitumor score is shown in the last column.
# tumor cells [2] = assay: Direct antitumor (AT) score on slides of tumor cell cultures; type: cell-based, human; conditions: direct antitumor effects; concentrations as in Table 1
# Protocol: as §1
# To assay for endothelial cells are mixed with, for example, 10% (volume/volume) or, for example, 1% (volume/volume) or intermediate percentages of antiangiogenic drug containing solution or vehicle control (most typically 0.9% NaCl). Final volume of cell suspension/drug solution (or vehicle) plated for culture can be 0.12 ml. Culturing is in polypropylene round bottom, 96-well culture dishes in a humidified 37° C. incubator for a standardized duration of time.
# Cells are cultured with the index concentration of each drug and, if desired, with dilutions of the index concentration, where the index concentration is determined from training set assays or from the literature. Negative controls generally consist of 0.9% NaCl, and/or the vehicle in which an antiangiogenic drug is dissolved. Replicate 96-well plates are tested.
# as §2, §3
# endothelial cells [3] = assay: Anti-microvascular effects in non-Hodgkin's Lymphoma lymph node biopsy culture (ImageJ and manual scores); type: cell-based, human; conditions: for concentration at which anti-angiogenic cell effects were achievable / anti-microvascular activity (in words): NHL lymph node biopsy sample; for concentration at which anti-angiogenic cell effects were achievable: FIG. 7; for anti-microvascular activity (in words): FIG. 6
# Excerpt: (§4) A lymph node biopsy was obtained from a non-Hodgkin's Lymphoma patient and processed and stained as described above. […] The cells can also be imaged using publicly available “ImageJ” software available from the National Institutes of Health (NIH) to assist quantitation. The image is converted to 8-bit black and white threshold gated to paint only the dead endothelial cells.
# The raw scores for the gated features (putative dead endothelial cells) are normalized for uneven cell distributions by image analyzing each area twice: first with the detection threshold set to gate only the features of interest (putative dead endothelial cells) and then again to detect all features on the slide (this would be analogous to normalizing gene copy to total DNA in cell extracts).
# endothelial cells [4] = assay: Endothelial cell killing by drugs and combinations in a poorly differentiated breast cancer specimen; type: cell-based, human; conditions: for effectiveness in endothelial cell killing (in words): Fast Green/H&E
# Excerpt: A specimen of poorly differentiated breast cancer was used in the procedures set forth in the previous examples and tested with various drugs and drug combinations as described above.
# [5] = system: non-Hodgkin's Lymphoma (NHL) cells; assay: Direct antitumor cell effects in non-Hodgkin's Lymphoma lymph node biopsy culture; type: cell-based, human; conditions: NHL lymph node biopsy sample, FIG. 6
# Excerpt: as §4
# (§5) The objective, automated ImageJ scores for both individual gated features and also for total area (originally in pixels squared) is shown. The raw scores for the gated features (putative dead endothelial cells) are normalized for uneven cell distributions by image analyzing each area twice: first with the detection threshold set to gate only the features of interest (putative dead endothelial cells) and then again to detect all features on the slide (this would be analogous to normalizing gene copy to total DNA in cell extracts). Shown additionally are the subjective (0+ to 5+) manual anti-vascular scores which were obtained one month before the installed the ImageJ software was installed. Shown additionally are the direct antitumor cell effects of each of the drugs and solvents tested.
# endothelial cells [6] = assay: Anti-microvascular effect scoring, Fast Green/H&E stained pancreatic carcinoid tumor suspension culture; type: cell-based, human
# Protocol: as §1
# Final volume of cell suspension/drug solution (or vehicle) plated for culture can be 0.12 ml. […]
# Cells are cultured with the index concentration of each drug and, if desired, with dilutions of the index concentration, where the index concentration is determined from training set assays or from the literature. […]
# endothelial cells [7] = assay: Endothelial cell death in cultured peripheral blood chronic lymphocytic leukemia cells; type: cell-based, human; conditions: peripheral blood CLL cells cultured 4 days, 2.5 mg/ml
# Excerpt: They are readily apparent as refractile, angular small cells of smaller dimension than the surrounding cells. These cells are about one-third the size of lymphocytes and are about 3μ in diameter.
# endothelial cells [8] = assay: ImageJ quantitation of dead endothelial cells in cultured lymph samples; type: cell-based, human; conditions: all of the lymphoma patients
# Excerpt: as §4, §5
# Lymph samples from five lymphoma patients and two normal volunteers were cultured and stained as described above. […] The quantitation of results was as described in Example 4 using ImageJ software.
# [9] = system: vascular endothelial growth factor (VEGF); assay: Level of VEGF in tumor cell cultures (optical density 450 nm minus 570 nm); type: cell-based, human
# Protocol: The observed ability of EtOH/DMSO to effect killing of microvascular/endothelial cells may be due to the ability of these solvents to reduce the levels of VEGF in cell culture. It is known that tumor cells secrete VEGF and VEGF is needed, for the growth of neovasculature. Accordingly, a number of tumor cell cultures were treated with these solvents. The level of VEGF in the cultures was measured by subtracting the optical density at 570 nm from the optical density of 450 nm.
# For tumor samples preserved in 10% DMSO, only very low levels of VEGF were observed. […] Of particular interest are the cells from Patient 6, shown at the end of the table.
# endothelial cells [10] = conditions: microaggregates of tumor biopsies, WO 2007/075440; cited from earlier work
# tumor cells [11] = conditions: microaggregates of tumor biopsies, WO 2007/075440; cited from earlier work
Compound,Anti-Vascular Score (AVS) (Avg) (endothelial cells [1]),AVS minus VAVS (Avg) (endothelial cells [1]),(AVS − VAVS)/AT Ratio (Avg) (endothelial cells [1]),Anti-Tumor (AT) Score (Avg) (tumor cells [2]),anti-microvascular activity (in words) (endothelial cells [3]),direct antitumor activity (in words) [5],other results
N.N.[Cl][Pt][Cl] [Cisplatin],4.5,0.6,0.01,59.2,,,
C[S+](C)[O-] [DMSO],,,,,,,concentration at which anti-angiogenic cell effects were achievable (endothelial cells [3]): 0.125 % of the final medium
"C#Cc1cccc(Nc2ncnc3cc(OCCOC)c(OCCOC)cc23)c1 [Erlotinib, erlotinib]",16.2,4.2,0.19,22.5,comparable to those of vehicle alone,"to a lesser extent, erlotinib acted directly on tumor cells",effectiveness in endothelial cell killing (in words) (endothelial cells [4]): None appeared particularly effective
"COc1cc2ncnc(Nc3ccc(F)c(Cl)c3)c2cc1OCCCN1CCOCC1 [Gefitinib, gefitinib]",8.3,4.5,0.16,28.5,,,"anti-microvascular effects score (0+ to 5+ scale) (endothelial cells [6]; pancreatic carcinoid tumor suspension culture, bevacizumab at 2.5 mg/ml, Fast Green/H&E): 0"
"Cc1ccc(NC(=O)c2ccc(CN3CCN(C)CC3)cc2)cc1Nc1nccc(-c2cccnc2)n1 [Imatinib, imatinib]",,2.8,,23.6,comparable to those of vehicle alone,acted directly on tumor cells,effectiveness in endothelial cell killing (in words) (endothelial cells [4]): None appeared particularly effective
"CNC(=O)c1cc(Oc2ccc(NC(=O)Nc3ccc(Cl)c(C(F)(F)F)c3)cc2)ccn1 [Sorafenib, sorafenib]",,1.4,,28.7,comparable to those of vehicle alone,acted directly on tumor cells,
"CCN(CC)CCNC(=O)c1c(C)[nH]c(/C=C2\C(=O)Nc3ccc(F)cc32)c1C [Sunitinib, sunitinib]",9.5,4.9,0.19,25.8,,,
COc1cccc2c1C(=O)c1c(O)c3c(c(O)c1C2=O)C[C@@](O)(C(=O)CO)C[C@@H]3O[C@H]1C[C@H](N)[C@H](O)[C@H](C)O1 [doxorubicin],,,,,relatively ineffective as anti-microvascular agents,direct antitumor effects,
CCO [ethanol],,,,,,,concentration at which anti-angiogenic cell effects were achievable (endothelial cells [3]): 0.125 % of the final medium
bevacizumab,24.7,19.7,,12.9,,essentially no direct antitumor effects,"endothelial cell death (appearance after Fast Green/H&E) (endothelial cells [6]; pancreatic carcinoid tumor, 96 hours in suspension culture, 2.5 mg/ml): resulting in endothelial cell death; anti-microvascular score (endothelial cells [4]; drug alone): +1; endothelial cell death (endothelial cells [7]): caused endothelial cell death; dead endothelial cells (200x view) (endothelial cells [3]; NHL lymph node biopsy cells cultured 4 days): presence of dead endothelial cells is readily apparent; visibility of endothelial cells (in words) (endothelial cells [8]): greatly enhanced; 450-570 O.D. (level of VEGF) ([9]; Pt 1 cells (Merkel tumor, 10% DMSO cryopreserved), 1.25 mg/ml, wells #1-#3, listed as Bev): 0.054 and 0.059; 450-570 O.D. (level of VEGF) ([9]; Pt 1 cells (Merkel tumor, 10% DMSO cryopreserved), 2.5 mg/ml, wells #1-#3, listed as Bev): 0.051 and 0.052 and 0.054; 450-570 O.D. (level of VEGF) ([9]; Pt 2 cells (ovarian, 10% DMSO cryopreserved), 1.25 mg/ml, wells #1-#3, listed as Bev): 0.059 and 0.055 and 0.054; 450-570 O.D. (level of VEGF) ([9]; Pt 2 cells (ovarian, 10% DMSO cryopreserved), 2.5 mg/ml, wells #1-#3, listed as Bev): 0.052 and 0.056 and 0.054; 450-570 O.D. (level of VEGF) ([9]; Pt 3 cells (breast, fresh), 2.5 mg/ml, wells #1-#2, listed as Bev): 0.056 and 0.059; 450-570 O.D. (level of VEGF) ([9]; Pt 4 cells (NHL, fresh), 1.25 mg/ml, wells #1-#2, listed as Bev): 0.074 and 0.068; 450-570 O.D. (level of VEGF) ([9]; Pt 4 cells (NHL, fresh), 2.5 mg/ml, wells #1-#2): 0.055; 450-570 O.D. (level of VEGF) ([9]; Pt 5 cells (breast, fresh), 2.5 mg/ml, well #1): 0.053; 450-570 O.D. (level of VEGF) ([9]; Pt 6 cells (breast, fresh), 1.25 mg/ml, well #1): 0.063; 450-570 O.D. (level of VEGF) ([9]; Pt 6 cells (breast, fresh), 2.5 mg/ml, well #1): 0.052; levels of VEGF (in words) ([9]; fresh breast tumor cells, untreated levels off-scale): could be brought to 0; effect on endothelial cells (in words) (endothelial cells [10]): endothelial cells showing up dead; effect on tumor cells (in words) (tumor cells [11]): tumor cells remain unaffected"
